How the values were obtained:
ToxT [1] = biological target: T1, ToxT (Vibrio cholerae serotype O1, UniProt A5F384); format: biochemical; details: for inhibition of ToxT DNA-binding in dose-response EMSA, compared with virstatin: compounds 10, 1, 0.1 μM, virstatin 100, 10, 1, 0.1 μM
T1 construct: made in house; host or cells: E. coli BL21-CodonPlus (DE3)-RIL
T1 sequence (A5F384 1-276): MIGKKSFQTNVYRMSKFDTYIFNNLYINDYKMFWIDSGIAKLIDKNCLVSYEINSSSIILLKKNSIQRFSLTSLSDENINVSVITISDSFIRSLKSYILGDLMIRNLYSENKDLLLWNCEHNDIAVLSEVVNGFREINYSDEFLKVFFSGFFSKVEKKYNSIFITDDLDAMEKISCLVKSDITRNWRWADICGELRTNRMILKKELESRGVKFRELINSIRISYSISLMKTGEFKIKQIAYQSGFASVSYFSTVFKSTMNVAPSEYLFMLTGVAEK

ToxT [2] = biological target: T1, ToxT; experiment: Competition STD NMR with virstatin as indicator; format: binding; details: 20 μM ToxT, 100 μM virstatin; based on KD of virstatin and decrease in STD signal; read-out: calculated Ki
Description: (§1) Virstatin was solubilized in DMSO-d6 and compounds 5a and 3b in DMSO, at working stock concentrations of 35.5 mM, 394 mM, and 50.5 mM, respectively. Purified ToxT in protein buffer (20 mM Tris, 1 mM EDTA, 320 mM NaCl, pH 7.5) was used at a final concentration of 20 μM. All samples contained 50 μM 3-(Trimethylsilyl)-1-propanesulfonic acid sodium salt (TSP) as an internal standard and 5% D2O. All NMR experiments were carried out on a Bruker Avance 600 MHz or 700 MHz spectrometer equipped with a TCI cryogenic probe. Samples were stored at 4 °C prior to acquisition.
Virstatin was used as the STD indicator at a concentration of 100 μM. Compounds 5a and 3b were added at concentrations of 20–200 μM. STD spectra were obtained as above, with a saturation time of 3 seconds. The calculation of the competitive inhibition was as follows[60]:
where CI is the concentration of inhibitor with unknown KD (compound 5a or 3b), CL is the concentration of ligand with known KD (virstatin), KD is that of virstatin, and i is the inhibition expressed as a fraction: [drawing 6] .

[3] = test system: V. cholerae classical strain O395; experiment: Autoagglutination assay of O395 cultures; format: cell-based, Vibrio cholerae
ToxT [4] = biological target: T1, ToxT; experiment: STD NMR determination of KD; format: binding
Description: as §1
KD determination followed the protocol outlined by Angulo et al.[57]. For on-resonance spectra, the protein was saturated at 500 Hz or 583.33 Hz for the 600 MHz and 700 MHz NMR spectrometers, respectively, for 1–4 seconds utilizing a train of 50 ms Gaussian pulses. For off-resonance spectra, the sample was irradiated at −2000 Hz. The total relaxation delay was 7 seconds. Data acquisition consisted of 128 scans and 32,768 points. The STD-effect was calculated by measuring the intensity of the virstatin aromatic proton peaks in the on- and off-resonance spectra:
The KD of virstatin was calculated using Michaelis-Menten kinetics. The STD-AF0 was plotted as a function of the ligand concentration to construct the binding (Langmuir) isotherm: […]

tcpA-lacZ = experiment: β-galactosidase reporter assay of tcpA-lacZ transcriptional fusion; format: cell-based, Vibrio cholerae; details: 5 μM and 0.5 μM

SMILES | inhibition of ToxT DNA-binding in dose-response EMSA, compared with virstatin (ToxT [1]) | autoagglutination of O395 cultures ([3]; 50 nM) | autoagglutination of O395 cultures ([3]; 0.5 μM) | also measured
Cc1cccc2c1C(CCC(=O)O)CCC2 (stereo not shown) [5a] | inhibited DNA-binding more strongly than virstatin | inhibited | completely abolished detectable autoagglutination | Ki (ToxT [2]): 31 µM
O=C(O)CCCN1C(=O)c2cccc3cccc(c23)C1=O [virstatin, reference compound] | – | – | did not | ToxT binding to tcpA promoter DNA (EMSA) (ToxT [1]; 100 μM compound, 0.78 μM ToxT): prevented ToxT from binding DNA; Kd (ToxT [4]; from STD spectra of aromatic protons Ha,b): 483 ± 109 µM; Kd (ToxT [4]; from STD spectra of aromatic protons He,f): 331 ± 65 µM
Cc1cccc2cccc(CCC(=O)O)c12 [4a] | inhibited DNA-binding more strongly than virstatin | inhibited | completely abolished detectable autoagglutination | –
CCCCCCCC/C=C\CCCCCCCC(=O)O [oleic acid, reference compound] | – | – | – | inhibition of tcpA transcription (relative β-galactosidase activity of tcpA-lacZ) (tcpA-lacZ): essentially no effect; autoagglutination of O395 cultures ([3]; 0.5 μM and 0.05 μM): no effect
Cc1cccc2cccc(/C=C/CC(=O)O)c12 [3b] | inhibited DNA-binding more strongly than virstatin | inhibited | completely abolished detectable autoagglutination | Ki (ToxT [2]): 10 µM
Cc1cccc2cccc(CCCC(=O)O)c12 [4b] | inhibited DNA-binding more strongly than virstatin | inhibited | completely abolished detectable autoagglutination | –
CCCCCC/C=C\CCCCCCCC(=O)O [cis-palmitoleic acid, reference compound] | – | – | – | inhibition of tcpA transcription (relative β-galactosidase activity of tcpA-lacZ) (tcpA-lacZ): essentially no effect; autoagglutination of O395 cultures ([3]; 0.5 μM and 0.05 μM): no effect

Source: PMC5362913, “A new class of inhibitors of the AraC family virulence regulator Vibrio cholerae ToxT” (Scientific Reports, 2017)
